Patent EP0863134A1, “2-(3,5-difluorophenyl)-3-(4-(methyl-sulfonyl)phenyl)-2-cyclopenten-1-one useful as an inhibitor of cyclooxygenase-2” (MERCK FROSST CANADA INC., priority 1997, dated 1998)
pIC50: −log10 of the molar value.

Experiments:
COX-2 [1] = biological target: T1, COX-2 (Homo sapiens, UniProt P35354); assay: Whole cell assay for COX-2 using CHO transfected cell line CHO[hCOX-2]; format: cell-based; conditions: CHO[hCOX-2] cells, 10 µM AA, PGE2
T1 construct: endogenous in cells; host or cells: fresh heparinized human whole blood from volunteers, LPS-stimulated
T1 sequence (P35354 18-604): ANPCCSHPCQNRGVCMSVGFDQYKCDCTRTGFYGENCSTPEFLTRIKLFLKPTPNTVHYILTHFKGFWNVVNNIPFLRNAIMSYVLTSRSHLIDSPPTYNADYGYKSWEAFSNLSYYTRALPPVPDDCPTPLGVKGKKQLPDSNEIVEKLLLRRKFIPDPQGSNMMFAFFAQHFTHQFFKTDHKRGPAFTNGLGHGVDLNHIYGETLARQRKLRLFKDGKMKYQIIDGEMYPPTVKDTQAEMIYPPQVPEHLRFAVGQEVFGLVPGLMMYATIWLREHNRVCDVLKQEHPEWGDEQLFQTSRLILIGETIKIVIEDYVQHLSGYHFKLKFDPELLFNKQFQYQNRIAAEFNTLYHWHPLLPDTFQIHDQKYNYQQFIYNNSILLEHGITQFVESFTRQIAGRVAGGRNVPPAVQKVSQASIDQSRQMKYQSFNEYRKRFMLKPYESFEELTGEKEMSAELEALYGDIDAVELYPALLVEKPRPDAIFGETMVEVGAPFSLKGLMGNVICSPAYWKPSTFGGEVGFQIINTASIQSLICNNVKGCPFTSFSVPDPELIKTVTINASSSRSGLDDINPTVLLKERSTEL
Procedure: (§1) Chinese hamster ovary (CHO) cell lines which have been stably transfected with an eukaryotic expression vector pCDNAIII containing either the human COX-1 or COX-2 cDNA's are used for the assay. These cell lines are referred to as CHO [hCOX-1] and CHO [hCOX-2], respectively. For cyclooxygenase assays, CHO[hCOX-1] cells from suspension cultures and CHO[hCOX-2] cells prepared by trypsinization of adherent cultures are harvested by centrifugation (300 x g, 10 min) and washed once in HBSS containing 15 mM HEPES, pH 7.4, and resuspended in HBSS, 15 mM HEPES, pH 7.4, at a cell concentration of 1.5 x 10^6 cells/ml. Drugs to be tested are dissolved in DMSO to 66.7-fold the highest test drug concentration. Compounds are typically tested at 8 concentrations in duplicate using serial 3-fold serial dilutions in DMSO of the highest drug concentration. […] Cyclooxygenase activity in the absence of test compounds is determined as the difference in PGE2 levels of cells challenged with arachidonic acid versus the PGE2 levels in cells mock-challenged with ethanol vehicle. Inhibition of PGE2 synthesis by test compounds is calculated as a percentage of the activity in the presence of drug versus the activity in the positive control samples. […] In the assays, inhibition is determined by measuring the amount of a prostaglandin synthesized in the presence and absence of a putative inhibitor. […]

COX-2 [2] = biological target: T1, COX-2; assay: Human whole blood assay, COX-2 (LPS-induced PGE2 production); format: cell-based; conditions: LPS-induced PGE2, 24 hours at 37°C
Procedure: (§2) Human whole blood provides a protein and cell-rich milieu appropriate for the study of biochemical efficacy of anti-inflammatory compounds such as selective COX-2 inhibitors. […] This is consistent with the observation that COX-2 inhibitors have no effect on PGE2 production in normal blood. These inhibitors are active only after incubation of human whole blood with LPS, which induces COX-2. This assay can be used to evaluate the inhibitory effect of selective COX-2 inhibitors on PGE2 production. As well, platelets in whole blood contain a large amount of the COX-1 enzyme. Immediately following blood clotting, platelets are activated through a thrombin-mediated mechanism. […] Thus, the effect of test compounds on TxB2 levels following blood clotting can be examined and used as an index for COX-1 activity. Therefore, the degree of selectivity by the test compound can be determined by measuring the levels of PGE2 after LPS induction (COX-2) and TxB2 following blood clotting (COX-1) in the same assay. Fresh blood is collected in heparinized tubes by venipuncture from both male and female volunteers. The subjects have no apparent inflammatory conditions and have not taken any NSAIDs for at least 7 days prior to blood collection. […] In the assays, inhibition is determined by measuring the amount of a prostaglandin synthesized in the presence and absence of a putative inhibitor. […]

COX-1 [3] = biological target: T2, COX-1 (Homo sapiens, UniProt P23219); assay: Whole cell assay for COX-1 using CHO transfected cell line CHO[hCOX-1]; format: cell-based; design: platelets in whole blood contain a large amount of the COX-1 enzyme; endogenous in cells; host or cells: platelets in fresh human whole blood without anticoagulant; conditions: CHO[hCOX-1] cells, 0.5 µM AA, PGE2
Procedure: as §1

Rat Paw edema = assay: Rat paw edema assay (carrageenan); format: in vivo, Male Sprague-Dawley rats; conditions: po, 1 hr before carrageenan, paw volume 3 hr later
Procedure: Male Sprague-Dawley rats (150-200 g) are fasted overnight and are given po, either vehicle (1% methocel or 5% Tween 80) or a test compound. One hr later, a line is drawn using a permanent marker at the level above the ankle in one hind paw to define the area of the paw to be monitored. The paw volume (V0) is measured using a plethysmometer (Ugo-Basile, Italy) based on the principle of water displacement. The animals are then injected subplantarly with 50 µl of 1% carrageenan solution in saline (FMC Corp, Maine) into the paw using an insulin syringe with a 25-gauge needle (i.e. 500 µg carrageenan per paw). Three hr later, the paw volume (V3) is measured and the increases in paw volume (V3 - VO) are calculated. The animals are sacrificed by CO2 asphyxiation and the absence or presence of stomach lesions scored. Data is compared with the vehicle-control values and percent inhibition calculated. All treatment groups are coded to eliminate observer bias.
Compounds of the present invention are inhibitors of COX-2 and are thereby useful in the treatment of COX-2 mediated diseases as enumerated above. The activities of compound A against cyclooxygenase may be seen in the representative results shown below in the Table. In the assays, inhibition is determined by measuring the amount of a prostaglandin synthesized in the presence and absence of a putative inhibitor. […]

COX-1 [4] = biological target: T2, COX-1; assay: Human whole blood assay, COX-1 (clotting-induced TxB2 production); format: cell-based; design: platelets in whole blood contain a large amount of the COX-1 enzyme; endogenous in cells; host or cells: platelets in fresh human whole blood without anticoagulant; conditions: clotting-induced TxB2, 1 hour at 37°C
Procedure: as §2, with “into vacutainers containing” for “in heparinized tubes by venipuncture from both male and female volunteers. The subjects have”, “anticoagulants.” for “apparent inflammatory conditions and have not taken any NSAIDs for at least 7 days prior to blood collection.”

COX-1 [5] = biological target: T2, COX-1; assay: Assay of COX-1 activity from U937 cell microsomes; format: biochemical; design: endogenous in cells; host or cells: U937 cells, 100,000 x g microsomal fraction; conditions: PGE2
Procedure: U 937 cells are pelleted by centrifugation at 500 x g for 5 min and washed once with phosphate-buffered saline and repelleted. Cells are resuspended in homogenization buffer consisting of 0.1 M Tris-HCl, pH 7.4, 10 mM EDTA, 2 µg/ml leupeptin, 2 µg/ml soybean trypsin inhibitor, 2 µg/ml aprotinin and 1 mM phenyl methyl sulfonyl fluoride. The cell suspension is sonicated 4 times for 10 sec and is centrifuged at 10,000 x g for 10 min at 4° C. The supernatant is centrifuged at 100,000 x g for 1 hr at 4° C. The 100,000 x g microsomal pellet is resuspended in 0.1 M Tris-HCl, pH 7.4, 10 mM EDTA to approximately 7 mg protein/ml and stored at -80° C. Microsomal preparations are thawed immediately prior to use, subjected to a brief sonication, and then diluted to a protein concentration of 125 µg/ml in 0.1 M Tris-HCl buffer, pH 7.4 containing 10 mM EDTA, 0.5 mM phenol, 1 mM reduced glutathione and 1 µM hematin. Assays are performed in duplicate in a final volume of 250 µl. […] Samples are neutralized with 25 µl of 1 N NaOH prior to quantitation of PGE2 content by radioimmunoassay (Dupont-NEN or Amersham assay kits). […] In the assays, inhibition is determined by measuring the amount of a prostaglandin synthesized in the presence and absence of a putative inhibitor. […]

T2 sequence (P23219 24-599): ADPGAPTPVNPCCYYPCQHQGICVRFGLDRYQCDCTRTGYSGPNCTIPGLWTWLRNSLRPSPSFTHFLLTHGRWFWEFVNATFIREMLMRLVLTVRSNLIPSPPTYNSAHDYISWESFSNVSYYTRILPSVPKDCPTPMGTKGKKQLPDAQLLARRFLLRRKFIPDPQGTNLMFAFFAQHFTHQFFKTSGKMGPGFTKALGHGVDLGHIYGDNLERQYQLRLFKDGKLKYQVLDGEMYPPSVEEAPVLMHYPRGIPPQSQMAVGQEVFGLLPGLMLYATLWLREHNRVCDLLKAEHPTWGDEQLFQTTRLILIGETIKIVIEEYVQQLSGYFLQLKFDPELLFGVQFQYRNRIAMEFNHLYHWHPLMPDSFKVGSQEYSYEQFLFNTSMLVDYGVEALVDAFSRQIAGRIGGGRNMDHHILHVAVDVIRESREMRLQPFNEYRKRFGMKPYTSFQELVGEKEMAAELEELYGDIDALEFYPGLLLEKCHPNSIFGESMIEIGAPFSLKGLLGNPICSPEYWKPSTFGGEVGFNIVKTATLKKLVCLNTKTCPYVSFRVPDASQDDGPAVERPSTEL

Row | Structure (SMILES) | pIC50 (COX-2 [1]) | pIC50 (COX-2 [2]) | pIC50 (COX-1 [3]) | ED50 (Rat Paw edema) [mg/kg] | pIC50 (COX-1 [4]) | pIC50 (COX-1 [5]) | pIC50 (COX-1 [3]; unit inferred)
1 | CS(=O)(=O)c1ccc(C2=C(c3cc(F)cc(F)c3)C(=O)CC2)cc1 [Compound A, 2-(3,5-difluorophenyl)-3-(4-(methylsulfonyl)phenyl)-2-cyclopenten-1-one] | 7.52 | 6.35 | < 4.30 | 2.6 | 4.11 | 4.96 | –
2 | CS(=O)(=O)c1ccc(C2=C(c3ccc(F)cc3)C(=O)CC2)cc1 [Compound B] | 7.70 | 6.92 | – | 3 | 5.36 | 6.35 | 4.77
